PubChem BioAssay AID328 (DTP/NCI, 2004)
Where “and” joins values, the source holds several entries; their conditions need not be identical. Equal entries are not always repeated. Toxic doses and inconclusive results are not listed.

Tested on: BDF1 mice, P388 leukemia ip, median survival T/C
Experiment: NCI In Vivo Anticancer Drug Screen. Data for tumor model P388 Leukemia (intraperitoneal) in B6D2F1 (BDF1) mice
Conditions: endpoint: median survival time, higher = longer survival
Outline: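 Antitumour effect was judged in vivo: survival in drug-treated mice, normalised to that of vehicle-dosed controls, gives the reported T/C.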

[1] = dose: 100.0 mg/kg/injection, schedule: Q01DX009 (ip), vehicle: saline with Tween-80
[2] = dose: 200.0 mg/kg/injection, schedule: Q01DX009 (ip), vehicle: saline with Tween-80
[3] = dose: 100.0 mg/kg/injection, schedule: Q01DX009 (ip), vehicle: saline
[4] = dose: 200.0 mg/kg/injection, schedule: Q01DX009 (ip), vehicle: saline
[5] = dose: 50.0 mg/kg/injection, schedule: Q01DX009 (ip), vehicle: saline

Cc1ccc2c(c1)C(c1ccccc1)(c1ccccc1)OC2=O
T/C [1]: 100 % of control | T/C [2]: 90 % of control | T/C (dose: 400.0 mg/kg/injection, schedule: Q01DX009 (ip), vehicle: saline with Tween-80): 100 % of control

Cc1cc(O)c2c(c1)C(=O)C=CC2=O
T/C (dose: 0.12 mg/kg/injection, schedule: Q01DX009 (ip), vehicle: other): 107 % of control | T/C (dose: 0.25 mg/kg/injection, schedule: Q01DX009 (ip), vehicle: other): 101 % of control | T/C (dose: 0.5 mg/kg/injection, schedule: Q01DX009 (ip), vehicle: other): 117 % of control | T/C (dose: 0.54 mg/kg/injection, schedule: Q01DX009 (ip), vehicle: alcohol): 120 % of control | T/C (dose: 0.82 mg/kg/injection, schedule: Q01DX009 (ip), vehicle: alcohol): 110 % of control | T/C (dose: 1.0 mg/kg/injection, schedule: Q01DX009 (ip), vehicle: other): 103 % of control | T/C (dose: 1.25 mg/kg/injection, schedule: Q01DX009 (ip), vehicle: alcohol): 106 % of control | T/C (dose: 1.8 mg/kg/injection, schedule: Q01DX009 (ip), vehicle: alcohol): 102 % of control | T/C (dose: 2.0 mg/kg/injection, schedule: Q01DX009 (ip), vehicle: other): 101 % of control | T/C (dose: 2.5 mg/kg/injection, schedule: Q01DX009 (ip), vehicle: alcohol): 121 % of control

COC(=O)C1(N)CCCC1
T/C [3]: 91 % of control | T/C [4]: 104 % of control

C1CCCCCC(NC2=NCCO2)CCCCC1
T/C (dose: 3.13 mg/kg/injection, schedule: Q04DX003 (ip), vehicle: saline with Tween-80): 95 % of control | T/C (dose: 6.25 mg/kg/injection, schedule: Q04DX003 (ip), vehicle: saline with Tween-80): 95 % of control | T/C (dose: 12.5 mg/kg/injection, schedule: Q04DX003 (ip), vehicle: saline with Tween-80): 108 % of control | T/C (dose: 25.0 mg/kg/injection, schedule: Q04DX003 (ip), vehicle: saline with Tween-80): 90 % of control | T/C (dose: 50.0 mg/kg/injection, schedule: Q04DX003 (ip), vehicle: saline with Tween-80): 90 % of control

O=C(O)C(CSC(c1ccccc1)(c1ccccc1)c1ccccc1)N=Cc1cccs1 (stereo not drawn)
T/C (dose: 2.1 mg/kg/injection, schedule: Q01DX009 (ip), vehicle: saline): 118 % of control | T/C (dose: 3.1 mg/kg/injection, schedule: Q01DX009 (ip), vehicle: saline): 109 % of control | T/C (dose: 7.2 mg/kg/injection, schedule: Q01DX009 (ip), vehicle: saline): 175 % of control | T/C (dose: 11.0 mg/kg/injection, schedule: Q01DX009 (ip), vehicle: saline): 189 % of control | T/C (dose: 16.0 mg/kg/injection, schedule: Q01DX009 (ip), vehicle: saline): 163 % of control | T/C (dose: 25.0 mg/kg/injection, schedule: Q01DX009 (ip), vehicle: saline): 185 % of control | T/C [5]: 200 % of control | T/C (dose: 66.0 mg/kg/injection, schedule: Q01DX009 (ip), vehicle: saline): 272 % of control and 177 % of control | T/C [3]: 250 % of control and 90 % of control and 218 % of control | T/C (dose: 150.0 mg/kg/injection, schedule: Q01DX009 (ip), vehicle: saline): 100 % of control

CN(C)c1ccc(/C=C/c2ccnc3ccc(Cl)cc23)cc1
T/C (dose: 50.0 mg/kg/injection, schedule: Q01DX009 (ip), vehicle: saline with Tween-80): 100 % of control | T/C [2]: 100 % of control

CNC(=O)c1nc(C)c(C)[nH]c1=O
T/C (dose: 25.0 mg/kg/injection, schedule: Q01DX009 (ip), vehicle: water): 97 % of control | T/C (dose: 50.0 mg/kg/injection, schedule: Q01DX009 (ip), vehicle: water): 90 % of control | T/C (dose: 50.0 mg/kg/injection, schedule: Q04DX003 (ip), vehicle: water): 103 % of control | T/C (dose: 100.0 mg/kg/injection, schedule: Q01DX009 (ip), vehicle: water): 99 % of control | T/C (dose: 200.0 mg/kg/injection, schedule: Q01DX009 (ip), vehicle: water): 90 % of control | T/C (dose: 400.0 mg/kg/injection, schedule: Q04DX003 (ip), vehicle: water): 100 % of control

CC1=NNC(=O)/C1=C\c1ccc(N(C)C)cc1
T/C (dose: 25.0 mg/kg/injection, schedule: Q01DX009 (ip), vehicle: saline with Tween-80): 95 % of control | T/C [1]: 93 % of control

O=C(c1ccccc1)N1CCC2OC2C1 (stereo not drawn)
T/C [5]: 94 % of control | T/C [3]: 109 % of control | T/C [4]: 100 % of control
